Results as given in patent US8063225B2, “Tricyclic compound derivatives useful in the treatment of neoplastic diseases, inflammatory disorders and immunomodulatory disorders” (Chembridge Corporation, priority 2006, dated 2011).

Columns and labels:
[1] = tested on: HEK293 (human normal embryonic kidney); experiment: Cell proliferation inhibition, MTT assay, HEK293; assay type: cell-based; settings: 72 h, HEK293 cells, 3-day proliferation, read-out: HEK IC50
Description: (§1) IGF1R and other tyrosine kinase inhibitors can inhibit the proliferation of certain cancer cell lines indicating their possible therapeutic utility for treating the corresponding cancer types. Cancer cell lines of interest and control normal lines, including CHO, HEK293, BA/F3, COLO205, PC3, DU145, MCF7, Panc1, ACHN, Hep G2, H460, K562, TT, U87-MG, CAOV-3, SK-MEL5, Karpas 299 and human multiple myeloma cell lines H929, MM1s, MM1r, UTMC2, CPM2, KMS11, My5, KMS12PE, My7, JJN3, KMS18, U266, SKMM2, RPMI-8226 are plated in white, clear-bottomed 384-well cell culture plates at 2500-5000 cells per well and supplied with dilutions of tested compounds After a desired period of time (typically 3 days), the number of viable cells is quantitated by using Cell Titer-Glo Luminescent Cell Viability Assay (Promega), a cell proliferation assay system based on detection of total amount of ATP present as a measure of cell metabolic activity. The plated cells are mixed with the Cell Titer-Glo developing reagent and counted in a luminescence multiwell plate reader according to the standard manufacturer's protocol to generate IC50 curves for cell proliferation inhibition. Results are typically reported as percent of growth (% viability =(OD72h(compound)−ODday0))/(OD72h(no compound)−ODday0). Alternatively, viable cells are quantitated by using the conventional colorimetric MTT assay. The MTT assay is based on the cleavage of the yellow tetrazolium salt MTT to purple formazan crystal by metabolic active cells. The formazan is then solubilized, and the concentration determined by optical density at 570 nm. The cells plated and incubated with a compound as described above are supplemented with the solution of MTT and incubated for 2-3 hours. The growth medium is removed and dimethyl sulfoxide is added into each well to dissolve the formazan. The absorbance is measured on an ELISA plate reader with a test wavelength of 570 nm and a background subtraction wavelength of 630 nm to obtain sample signal (OD570-OD630). […] The results are reported in terms of IC50 value for a particular compound and a cell line in the standard 3-day proliferation assay using Cell Titer-Glo. […] The results are reported in terms of IC50 value for a particular compound and a cell line in the standard 3-day proliferation assay using MTT assay.

[2] = tested on: CHO (chinese hamster ovary); experiment: Cell proliferation inhibition, MTT assay, CHO; assay type: cell-based; settings: Cricetulus griseus, 72 h, CHO cells, 3-day proliferation
Description: as §1

H929 = experiment: Cell proliferation inhibition, MTT assay, H929; assay type: cell-based; settings: Homo sapiens, NCI-H929, 72 h, H929 multiple myeloma cells, 3-day proliferation
Description: as §1

MM1s = experiment: Cell proliferation inhibition, MTT assay, MM1s; assay type: cell-based; settings: Homo sapiens, MM1.S, 72 h, MM1S multiple myeloma cells, 3-day proliferation
Description: as §1

MM1r = experiment: Cell proliferation inhibition, MTT assay, MM1r; assay type: cell-based; settings: Homo sapiens, MM.1R, 72 h, MM1R multiple myeloma cells, 3-day proliferation
Description: as §1

UTMC2 = experiment: Cell proliferation inhibition, MTT assay, UTMC2; assay type: cell-based; settings: Homo sapiens, 72 h, UTMC2 multiple myeloma cells, 3-day proliferation
Description: as §1

CPM2 = experiment: Cell proliferation inhibition, MTT assay, CPM2; assay type: cell-based; settings: Homo sapiens, Multiple myeloma cell, 72 h, CPM2 multiple myeloma cells, 3-day proliferation
Description: as §1

KMS11 = experiment: Cell proliferation inhibition, MTT assay, KMS11; assay type: cell-based; settings: Homo sapiens, KMS-11, 72 h, KMS11 multiple myeloma cells, 3-day proliferation
Description: as §1

IGF1R tyrosine kinase = biological target: T1, IGF1R tyrosine kinase (Homo sapiens, UniProt P08069); experiment: IGF1R tyrosine kinase assay (Kinase-Glo ATP depletion or PT66/PT100 AlphaScreen); settings: biochemical tyrosine kinase assay
T1 construct: 6×His- or GST-tagged kinase domain fragments of the corresponding RTKs expressed in baculovirus system; host or cells: baculovirus system
Procedure, shortened: (§2)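 Inhibition measured on recombinant RTK kinase domains phosphorylating poly(Glu-Tyr) at 10 μM ATP, either by ATP depletion luminescence (37 °C, 60 min) or by PT66/PT100 AlphaScreen with biotinylated substrate (RT, 30 min plus 60 min bead step). For Alk, InsR and Jak2, enzyme titrated to ≤30% ATP consumption; IC50 from nonlinear regression.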

InsR = biological target: T2, InsR (Homo sapiens, UniProt P06213); experiment: Tyrosine kinase assay (Kinase-Glo or AlphaScreen), InsR; settings: biochemical tyrosine kinase assay
T2 construct: 6×His- or GST-tagged kinase domain fragments of the corresponding RTKs expressed in baculovirus system; host or cells: baculovirus system
Procedure, shortened: as §2

Alk = biological target: T3, Alk (Homo sapiens, UniProt Q9UM73); experiment: Tyrosine kinase assay (Kinase-Glo or AlphaScreen), Alk; settings: biochemical tyrosine kinase assay
T3 construct: 6×His- or GST-tagged kinase domain fragments of the corresponding RTKs expressed in baculovirus system; host or cells: baculovirus system
Procedure, shortened: as §2

TrkA = biological target: T4, TrkA (Homo sapiens, UniProt P04629); experiment: Tyrosine kinase assay (Kinase-Glo or AlphaScreen), TrkA; settings: biochemical tyrosine kinase assay
T4 construct: 6×His- or GST-tagged kinase domain fragments of the corresponding RTKs expressed in baculovirus system; host or cells: baculovirus system
Description: To determine inhibition of several tyrosine kinases, such as IGF1R, InsR, Alk, TrkA and Jak2, kinase assays are conducted using either Kinase-Glo (Promega) or AlphaScreen (PerkinElmer) kinase assay platforms. The Kinase-Glo Luminescent Kinase Assay is a homogeneous method for measuring kinase activity by determining the amount of ATP remaining after a kinase reaction. The luminescent signal is proportional to the amount of ATP and inversely proportional to the amount of kinase activity. Tyrosine kinase PT66 AlphaScreen Assay is a high-sensitivity homogeneous, anti-phosphotyrosine antibody-mediated luminescent proximity method measuring, incorporation of phosphate in synthetic poly(Glu-Tyr) substrate. The kinase preparations used consist of purified recombinant, 6×His- or GST-tagged kinase domain fragments of the corresponding RTKs expressed in baculovirus system.
The IGF1R tyrosine kinase is assayed in Kinase-Glo ATP depletion assay using the synthetic polymer poly(Glu-Tyr, 4:1) (Sigma Chemicals) as a phosphoacceptor substrate. Each reaction mixture consists of a total volume of 10 μl and contains 40 ng of the enzyme, 5 μg of poly(Glu-Tyr), 10 μM of ATP and variable concentrations of test compounds. The mixtures also contain 50 mM Tris-HCl, pH 7.5; 5 mM MgCl2; 5 mM MnCl2; 2 mM DTT and 0.01% Tween 20. The reaction mixtures are incubated at 37° C. for 60 minutes and residual concentration of ATP in the mixture is determined by adding luciferase-containing Kinase-Glo (Promega) development reagent and counting luminescence levels using Fusion Universal Microplate Analyzer (PerkinElmer). Tested compounds are dissolved in dimethyl sulfoxide to a stock concentration of 10 mM and are typically evaluated in the assay at eight concentrations in 1 nM to 20 μM range, each in quadruplicate. […] IC50 values are derived by non-linear regression analysis using Prism 3.0 software (Graphpad Software). Other tyrosine kinases are assayed according to the same protocol after titrating amount of the enzyme to provide optimal signal-to-noise ratio and no more than 30% of total ATP consumption in the reaction conditions used.
The IGF1R tyrosine kinase is assayed in Phosphotyrosine (PT66 or PT 100) AlphaScreen chemiluminescent assay (PerkinElmer) according to the manufacturerer's recommendations. Each kinase reaction mixture consists of a total volume of 15 μl and contains 0.1-1 ng of the enzyme, 7 ng of biotinylated poly(Glu-Tyr) (Cis-Bio), 10 μM of ATP and variable concentrations of test compounds. The mixtures also contain 50 mM Tris-HCl, pH 7.5; 5 mM MgCl2; 5 mM MnCl2; 2 mM DTT and 0.01% Tween 20. The reaction mixtures are incubated at room temperature for 30 minutes. Ten (10) μl of the mixture of […] and donor beads (as supplied by the manufacturer) is then added to the reaction and the incubation is continued for an additional 60 minutes.

Jak2 = biological target: T5, Jak2 (Homo sapiens, UniProt O60674); experiment: Tyrosine kinase assay (Kinase-Glo or AlphaScreen), Jak2; settings: biochemical tyrosine kinase assay
T5 construct: 6×His- or GST-tagged kinase domain fragments of the corresponding RTKs expressed in baculovirus system; host or cells: baculovirus system
Procedure, shortened: as §2

H929 (multiple myeloma) = experiment: Cell proliferation inhibition, Cell Titer-Glo, H929; assay type: cell-based; settings: Homo sapiens, NCI-H929; cell proliferation assay, H929 cells
Procedure, shortened: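 Cells seeded at 2500-5000 per well with serially diluted compound for typically 3 days. Viable cells measured by ATP luminescence (Cell Titer-Glo); IC50 from proliferation-inhibition curves.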

Ba/F3 = experiment: Cell proliferation inhibition, Cell Titer-Glo, Ba/F3; assay type: cell-based; settings: Mus musculus, BaF3; cell proliferation assay, Ba/F3 cells
Procedure, shortened: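 This standard 3-day proliferation assay used Ba/F3 cells plated in 384-well white plates with clear bottoms at 2500-5000 cells per well and treated with compound dilutions. Viable cell number was determined by mixing in Cell Titer-Glo developing reagent according to the manufacturer's protocol and counting luminescence. Percent viability relative to day 0 and untreated wells produced IC50 curves.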

Karpas-299 = experiment: Cell proliferation inhibition, Cell Titer-Glo, Karpas-299; assay type: cell-based; settings: Homo sapiens; cell proliferation assay, Karpas-299 cells
Procedure, shortened: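 In this standard 3-day proliferation assay, Karpas 299 cells plated at 2500-5000 cells per well in 384-well white, clear-bottomed plates were treated with compound dilutions. Cell Titer-Glo developing reagent was added following the manufacturer's protocol, luminescence reflecting ATP content was read on a multiwell plate reader, and IC50 curves were generated.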

K562 = experiment: Cell proliferation inhibition, Cell Titer-Glo, K562; assay type: cell-based; settings: Homo sapiens; cell proliferation assay, K562 cells
Procedure, shortened: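 Proliferation inhibition in human K562 cells was assessed in a standard 3-day assay. Cells (2500-5000 per well) in 384-well white, clear-bottomed plates received serial compound dilutions, then Cell Titer-Glo reagent was added per the manufacturer's protocol. Luminescence reflecting ATP content of metabolically active cells was counted in a multiwell reader, and IC50 curves were generated.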

T4 sequence (P04629 510-781 limits assumed, species assumed): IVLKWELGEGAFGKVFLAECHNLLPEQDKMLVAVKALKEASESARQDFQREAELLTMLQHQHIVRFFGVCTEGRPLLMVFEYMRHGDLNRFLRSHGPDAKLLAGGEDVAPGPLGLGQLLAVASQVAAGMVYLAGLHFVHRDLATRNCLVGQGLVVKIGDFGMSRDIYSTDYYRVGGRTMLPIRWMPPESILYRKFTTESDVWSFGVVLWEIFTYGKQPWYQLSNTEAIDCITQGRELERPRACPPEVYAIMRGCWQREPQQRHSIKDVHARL
T5 sequence (O60674 849-1124 limits assumed, species assumed): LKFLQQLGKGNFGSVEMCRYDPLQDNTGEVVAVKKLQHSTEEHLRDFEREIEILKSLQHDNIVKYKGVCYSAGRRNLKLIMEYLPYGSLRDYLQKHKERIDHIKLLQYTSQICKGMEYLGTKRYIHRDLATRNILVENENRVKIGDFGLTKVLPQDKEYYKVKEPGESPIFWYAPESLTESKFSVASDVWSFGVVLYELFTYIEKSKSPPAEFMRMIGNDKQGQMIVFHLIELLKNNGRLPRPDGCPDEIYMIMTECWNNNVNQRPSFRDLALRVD
T1 sequence (P08069 999-1274 limits assumed): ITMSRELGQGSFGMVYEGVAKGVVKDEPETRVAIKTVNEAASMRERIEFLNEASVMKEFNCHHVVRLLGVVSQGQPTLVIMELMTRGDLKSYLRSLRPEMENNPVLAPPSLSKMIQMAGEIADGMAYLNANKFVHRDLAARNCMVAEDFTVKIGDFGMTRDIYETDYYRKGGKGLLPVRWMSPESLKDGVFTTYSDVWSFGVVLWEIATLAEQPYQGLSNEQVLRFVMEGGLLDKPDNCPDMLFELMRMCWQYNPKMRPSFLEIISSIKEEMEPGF
T2 sequence (P06213 1023-1298 limits assumed, species assumed): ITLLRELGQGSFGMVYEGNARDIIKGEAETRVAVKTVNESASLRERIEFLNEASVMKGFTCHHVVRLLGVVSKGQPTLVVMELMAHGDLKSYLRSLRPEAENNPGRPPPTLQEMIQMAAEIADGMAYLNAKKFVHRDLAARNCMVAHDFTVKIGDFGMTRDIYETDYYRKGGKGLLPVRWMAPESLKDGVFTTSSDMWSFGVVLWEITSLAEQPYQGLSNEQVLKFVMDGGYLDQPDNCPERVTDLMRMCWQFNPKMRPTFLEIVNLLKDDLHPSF
T3 sequence (Q9UM73 1116-1392 limits assumed, species assumed): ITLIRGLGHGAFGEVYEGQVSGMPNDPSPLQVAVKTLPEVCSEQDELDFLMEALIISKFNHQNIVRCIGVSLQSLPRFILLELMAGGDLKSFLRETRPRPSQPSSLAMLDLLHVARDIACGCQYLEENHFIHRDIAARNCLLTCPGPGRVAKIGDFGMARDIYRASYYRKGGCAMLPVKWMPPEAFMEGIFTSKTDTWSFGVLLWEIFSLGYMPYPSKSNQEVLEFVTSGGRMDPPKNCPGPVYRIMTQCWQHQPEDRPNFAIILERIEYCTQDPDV

IC50 (H929) [µM] | IC50 (MM1s) [µM] | IC50 (MM1r) [µM] | IC50 (IGF1R tyrosine kinase) [µM] | IC50 (InsR) [µM] | IC50 (Alk) [µM] | IC50 (TrkA) [µM] | IC50 (Jak2) [µM] | IC50 (H929 (multiple myeloma)) [µM] | IC50 (Ba/F3) [µM] | IC50 (Karpas-299) [µM] | IC50 (K562) [µM] | Compound | IC50 [1] [µM] | IC50 [2] [µM] | IC50 (UTMC2) [µM] | IC50 (CPM2) [µM] | IC50 (KMS11) [µM]
< 0.5 | < 0.5 | 0.5 to 1 |  |  |  |  |  |  |  |  |  | Cc1ccc(OCC(=O)CNc2cc[nH]c(=O)c2-c2nc3cc4c(cc3[nH]2)CN(C2CCN(C)CC2)C4=O)c(C)c1 [drawing 838] | ≥ 20 | ≥ 20 | 0.5 to 1 | 1 to 5 | 1 to 5
 |  |  | < 0.5 | < 0.5 | 5 to 15 | < 0.5 | < 0.5 |  |  |  |  | CN1CCC(N2Cc3cc4nc(-c5c(NC[C@@H](O)COc6c(F)ccc(Cl)c6F)cc[nH]c5=O)[nH]c4cc3C2=O)CC1 [compound 134] |  |  |  |  | 
0.5 to 1 | 1 to 5 | 1 to 5 |  |  |  |  |  |  |  |  |  | Cc1ccc(OCC(=O)CNc2cc[nH]c(=O)c2-c2nc3cc4c(cc3[nH]2)CN(CCCN2CCCC2)C4=O)c(C)c1 [drawing 840] | ≥ 20 | ≥ 20 | 0.5 to 1 | 5 to 20 | 5 to 20
 |  |  | < 0.5 | 0.5 to 5 | 0.5 to 5 | < 0.5 | 0.5 to 5 | > 15 | > 15 | > 15 | > 15 | Cc1c(Cl)cccc1OC[C@H](O)CNc1cc[nH]c(=O)c1-c1nc2cc3c(cc2[nH]1)C(=O)N(C1CCN(CCCO)CC1)C3=O [compound 135] |  |  |  |  | 
